Test results published in patent publication US20130209543A1, “ENHANCED TREATMENT REGIMENS USING MTOR INHIBITORS” (Intellikine LLC, priority 2011, published 2013).
Read-outs that look alike come from different tables or passages of the source.

How the values were obtained:
PI3K δ = PI3K δ (Homo sapiens, UniProt O00329); assay: PI3K δ kinase assay; format: biochemical
PI3K β = PI3K β (Homo sapiens, UniProt P42338); assay: PI3K β kinase assay; format: biochemical
mTOR = biological target: T1, mTOR (Homo sapiens, UniProt P42345); assay: mTOR kinase inhibition assay; format: biochemical
T1 construct: purchased Invitrogen
Procedure: The compounds described herein and any other mTorC1/mTorC2 inhibitors known in the art can be tested against recombinant mTOR (Invitrogen) in an assay containing 50 mM HEPES, pH 7.5, 1 mM EGTA, 10 mM MgCl2, 2.5 mM, 0.01% Tween, 10 μM ATP (2.5 μCi of μ-32P-ATP), and 3 mg/mL BSA. Rat recombinant PHAS-1/4EBP1 (Calbiochem; 2 mg/mL) is used as a substrate. Reactions are terminated by spotting onto nitrocellulose, which is washed with 1M NaCl/1% phosphoric acid (approximately 6 times, 5-10 minutes each). Sheets are dried and the transferred radioactivity quantitated by phosphorimaging.
For instance, one can use Invitrogen's LanthaScreen™ Kinase assay to test the inhibitors of mTOR disclosed herein. This assay is a time resolved FRET platform that measures the phosphorylation of GFP labeled 4EBP1 by mTOR kinase. The kinase reaction is performed in a white 384 well microtitre plate. The total reaction volume is 20 μl per well and the reaction buffer composition is 50 mM HEPES pH7.5, 0.01% Polysorbate 20, 1 mM EGTA, 10 mM MnCl2, and 2 mM DTT. In the first step, each well receives 2 ul of test compound in 20% dimethylsulphoxide resulting in a 2% DMSO final concentration. Next, 8ul of mTOR diluted in reaction buffer is added per well for a 60 ng/ml final concentration. To start the reaction, 10 ul of an ATP/GFP-4EBP1 mixture (diluted in reaction buffer) is added per well for a final concentration of 10 μM ATP and 0.5 μM GFP-4EBP1. The plate is sealed and incubated for 1 hour at room temperature. […] The plate is sealed, incubated for 1 hour at room temperature, and then read on a plate reader set up for LanthaScreen™ TR-FRET. Data is analyzed and IC50s are generated using GraphPad Prism 5.

PI3K α = PI3K α (Homo sapiens, UniProt P42336); assay: PI3K α kinase assay; format: biochemical
PI3K α, sequence (P42336 whole entry, species assumed): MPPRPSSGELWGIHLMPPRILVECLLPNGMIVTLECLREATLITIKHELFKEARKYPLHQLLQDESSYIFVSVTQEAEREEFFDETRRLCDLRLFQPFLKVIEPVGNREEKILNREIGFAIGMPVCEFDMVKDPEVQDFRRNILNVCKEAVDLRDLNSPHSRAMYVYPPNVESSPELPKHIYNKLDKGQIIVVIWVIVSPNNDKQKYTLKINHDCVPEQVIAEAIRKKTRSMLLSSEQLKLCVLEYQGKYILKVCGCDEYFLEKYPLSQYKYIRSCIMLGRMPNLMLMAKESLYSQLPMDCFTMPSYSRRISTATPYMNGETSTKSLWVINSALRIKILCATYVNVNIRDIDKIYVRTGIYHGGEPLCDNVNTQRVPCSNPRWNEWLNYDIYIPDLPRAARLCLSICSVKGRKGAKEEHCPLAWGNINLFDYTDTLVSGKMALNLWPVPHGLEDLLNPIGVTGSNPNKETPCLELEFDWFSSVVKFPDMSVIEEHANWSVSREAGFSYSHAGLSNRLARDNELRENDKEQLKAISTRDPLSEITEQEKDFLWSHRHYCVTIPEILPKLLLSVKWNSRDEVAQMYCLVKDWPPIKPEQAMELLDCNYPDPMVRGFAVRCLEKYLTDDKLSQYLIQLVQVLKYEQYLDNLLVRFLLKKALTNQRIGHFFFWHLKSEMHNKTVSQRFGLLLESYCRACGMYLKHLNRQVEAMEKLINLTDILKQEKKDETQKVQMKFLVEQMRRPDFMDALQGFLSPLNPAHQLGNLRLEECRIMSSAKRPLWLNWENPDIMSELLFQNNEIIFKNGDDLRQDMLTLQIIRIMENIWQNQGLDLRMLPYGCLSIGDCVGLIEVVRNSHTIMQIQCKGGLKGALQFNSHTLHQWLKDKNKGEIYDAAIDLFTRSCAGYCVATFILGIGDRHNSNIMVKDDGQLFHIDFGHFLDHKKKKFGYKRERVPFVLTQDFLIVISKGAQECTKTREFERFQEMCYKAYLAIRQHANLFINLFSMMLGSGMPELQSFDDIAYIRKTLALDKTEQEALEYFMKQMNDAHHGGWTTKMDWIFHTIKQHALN
PI3K α, sequence (P27986 whole entry partner, species assumed): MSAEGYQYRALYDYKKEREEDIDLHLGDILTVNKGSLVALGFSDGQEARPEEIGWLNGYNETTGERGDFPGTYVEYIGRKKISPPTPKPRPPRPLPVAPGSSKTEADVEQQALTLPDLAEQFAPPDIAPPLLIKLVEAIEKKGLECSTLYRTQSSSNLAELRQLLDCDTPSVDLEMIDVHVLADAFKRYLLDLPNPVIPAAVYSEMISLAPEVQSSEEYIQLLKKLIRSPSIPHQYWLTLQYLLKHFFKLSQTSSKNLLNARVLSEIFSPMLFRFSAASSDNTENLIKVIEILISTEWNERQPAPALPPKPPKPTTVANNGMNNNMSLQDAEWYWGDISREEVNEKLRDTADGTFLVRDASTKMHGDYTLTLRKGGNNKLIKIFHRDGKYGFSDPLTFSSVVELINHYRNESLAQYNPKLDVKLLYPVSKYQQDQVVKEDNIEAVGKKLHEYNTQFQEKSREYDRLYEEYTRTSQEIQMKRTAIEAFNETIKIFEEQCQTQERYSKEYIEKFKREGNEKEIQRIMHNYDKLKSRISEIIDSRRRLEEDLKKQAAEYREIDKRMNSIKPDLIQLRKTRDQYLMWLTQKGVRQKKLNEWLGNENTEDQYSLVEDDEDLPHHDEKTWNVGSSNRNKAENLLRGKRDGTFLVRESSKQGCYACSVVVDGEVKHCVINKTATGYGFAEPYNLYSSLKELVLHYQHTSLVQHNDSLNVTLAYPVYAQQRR

PI3K γ = PI3K γ (Homo sapiens, UniProt P48736); assay: PI3K γ kinase assay; format: biochemical
PI3K γ, sequence (P48736 whole entry, species assumed): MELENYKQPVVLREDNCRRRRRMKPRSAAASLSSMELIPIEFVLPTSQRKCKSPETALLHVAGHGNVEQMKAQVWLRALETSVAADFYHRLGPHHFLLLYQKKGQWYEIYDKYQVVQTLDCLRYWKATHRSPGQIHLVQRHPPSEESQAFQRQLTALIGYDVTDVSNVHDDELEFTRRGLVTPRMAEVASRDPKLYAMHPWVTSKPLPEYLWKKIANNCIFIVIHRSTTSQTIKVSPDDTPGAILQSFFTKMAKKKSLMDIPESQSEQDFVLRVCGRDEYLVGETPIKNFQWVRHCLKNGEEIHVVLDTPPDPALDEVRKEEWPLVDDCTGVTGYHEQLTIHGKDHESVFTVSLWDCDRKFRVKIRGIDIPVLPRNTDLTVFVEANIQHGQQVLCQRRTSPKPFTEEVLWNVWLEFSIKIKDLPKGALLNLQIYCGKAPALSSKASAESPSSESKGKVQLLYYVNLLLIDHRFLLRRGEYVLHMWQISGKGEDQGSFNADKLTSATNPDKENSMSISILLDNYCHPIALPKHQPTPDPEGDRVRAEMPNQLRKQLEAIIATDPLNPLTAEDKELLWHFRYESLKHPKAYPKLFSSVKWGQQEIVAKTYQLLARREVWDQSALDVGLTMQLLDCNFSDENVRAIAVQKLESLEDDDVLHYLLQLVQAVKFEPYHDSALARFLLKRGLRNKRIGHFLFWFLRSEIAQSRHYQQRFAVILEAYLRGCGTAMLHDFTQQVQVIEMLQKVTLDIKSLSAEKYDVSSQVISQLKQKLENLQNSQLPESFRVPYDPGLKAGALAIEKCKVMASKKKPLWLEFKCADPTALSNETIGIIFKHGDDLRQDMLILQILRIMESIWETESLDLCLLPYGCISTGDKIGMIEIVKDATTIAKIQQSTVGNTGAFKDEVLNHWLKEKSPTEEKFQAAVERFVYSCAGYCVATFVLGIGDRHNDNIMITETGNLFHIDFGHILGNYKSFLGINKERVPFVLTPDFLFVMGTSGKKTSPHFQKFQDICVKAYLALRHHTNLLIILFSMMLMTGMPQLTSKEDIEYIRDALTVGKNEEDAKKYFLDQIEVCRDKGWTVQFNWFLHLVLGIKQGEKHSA

PC3 = PC3 proliferation; format: cell-based; conditions: Homo sapiens, PC-3; for EC50: Table 1; for IC50: Table 2

PI3K β, sequence (P42338 whole entry, species assumed): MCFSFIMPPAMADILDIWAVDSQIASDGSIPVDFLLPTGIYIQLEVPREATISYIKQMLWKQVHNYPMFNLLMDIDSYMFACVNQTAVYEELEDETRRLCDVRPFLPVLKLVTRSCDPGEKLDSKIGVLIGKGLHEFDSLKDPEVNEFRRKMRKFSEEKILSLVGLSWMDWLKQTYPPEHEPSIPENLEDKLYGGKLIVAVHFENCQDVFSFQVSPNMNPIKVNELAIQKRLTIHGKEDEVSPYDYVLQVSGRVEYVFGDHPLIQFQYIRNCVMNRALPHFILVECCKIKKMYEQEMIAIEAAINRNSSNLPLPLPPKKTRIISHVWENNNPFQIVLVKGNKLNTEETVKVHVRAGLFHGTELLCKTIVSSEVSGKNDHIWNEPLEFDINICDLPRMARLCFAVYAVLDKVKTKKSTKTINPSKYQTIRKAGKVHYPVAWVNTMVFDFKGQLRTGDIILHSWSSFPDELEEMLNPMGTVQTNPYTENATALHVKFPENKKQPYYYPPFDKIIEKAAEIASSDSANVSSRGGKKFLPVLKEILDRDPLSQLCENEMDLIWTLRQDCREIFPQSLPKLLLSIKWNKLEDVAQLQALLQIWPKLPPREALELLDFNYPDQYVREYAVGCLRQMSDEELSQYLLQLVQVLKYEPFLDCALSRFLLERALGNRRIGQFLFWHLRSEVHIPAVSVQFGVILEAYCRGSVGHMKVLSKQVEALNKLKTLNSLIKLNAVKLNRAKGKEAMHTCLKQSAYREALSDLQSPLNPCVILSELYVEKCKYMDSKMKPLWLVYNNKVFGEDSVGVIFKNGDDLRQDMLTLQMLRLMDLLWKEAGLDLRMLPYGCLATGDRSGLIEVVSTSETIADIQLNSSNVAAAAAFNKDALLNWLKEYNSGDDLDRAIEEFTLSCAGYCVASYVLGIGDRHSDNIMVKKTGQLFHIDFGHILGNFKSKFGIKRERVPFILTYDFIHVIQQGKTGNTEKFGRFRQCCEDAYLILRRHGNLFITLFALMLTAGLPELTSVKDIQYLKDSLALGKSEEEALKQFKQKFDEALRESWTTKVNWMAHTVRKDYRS
PI3K β, sequence (P27986 whole entry partner, species assumed): as the sequence (P27986 whole entry partner, species assumed) above
PI3K δ, sequence (O00329 whole entry, species assumed): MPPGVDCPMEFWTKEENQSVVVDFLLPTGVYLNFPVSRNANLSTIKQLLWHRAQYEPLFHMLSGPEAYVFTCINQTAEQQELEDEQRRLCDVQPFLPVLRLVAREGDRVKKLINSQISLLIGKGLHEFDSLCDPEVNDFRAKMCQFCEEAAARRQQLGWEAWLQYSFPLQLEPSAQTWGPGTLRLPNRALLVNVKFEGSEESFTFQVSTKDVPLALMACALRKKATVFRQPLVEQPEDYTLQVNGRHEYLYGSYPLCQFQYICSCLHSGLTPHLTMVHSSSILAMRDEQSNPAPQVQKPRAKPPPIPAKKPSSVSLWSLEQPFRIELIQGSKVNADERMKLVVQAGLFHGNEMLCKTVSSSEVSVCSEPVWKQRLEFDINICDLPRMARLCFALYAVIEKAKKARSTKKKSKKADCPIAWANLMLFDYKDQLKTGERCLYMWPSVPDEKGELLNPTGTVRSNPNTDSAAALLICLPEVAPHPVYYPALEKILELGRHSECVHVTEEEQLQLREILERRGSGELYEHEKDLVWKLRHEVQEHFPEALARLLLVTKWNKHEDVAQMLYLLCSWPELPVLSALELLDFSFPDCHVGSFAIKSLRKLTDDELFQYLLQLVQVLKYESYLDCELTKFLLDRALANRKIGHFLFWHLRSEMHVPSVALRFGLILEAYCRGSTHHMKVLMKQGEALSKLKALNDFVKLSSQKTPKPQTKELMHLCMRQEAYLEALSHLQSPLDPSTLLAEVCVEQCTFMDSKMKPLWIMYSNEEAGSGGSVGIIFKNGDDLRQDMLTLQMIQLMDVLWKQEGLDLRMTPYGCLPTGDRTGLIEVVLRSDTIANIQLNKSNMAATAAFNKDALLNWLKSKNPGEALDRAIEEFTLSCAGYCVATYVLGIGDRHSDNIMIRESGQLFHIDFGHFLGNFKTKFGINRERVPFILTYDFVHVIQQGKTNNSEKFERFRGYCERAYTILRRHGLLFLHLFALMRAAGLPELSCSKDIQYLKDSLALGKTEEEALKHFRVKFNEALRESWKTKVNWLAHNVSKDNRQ
PI3K δ, sequence (P27986 whole entry partner, species assumed): as the sequence (P27986 whole entry partner, species assumed) above

CC(=O)Nc1nc2cc(-c3nn(C(C)C)c4ncnc(N)c34)ccc2o1 [Compound 2]
IC50 (PI3K δ; Table 1): < 1000 nM
IC50 (PI3K β; Table 1): > 10000 nM
IC50 (mTOR; Table 1, read-out: mTOR IC50): < 100 nM
IC50 (PI3K α; Table 1): < 10000 nM
IC50 (PI3K γ; Table 1): < 1000 nM
EC50 (PC3): < 1000 nM

CC(C)n1nc(-c2ccc3nc(N)oc3c2)c2c(N)ncnc21 [Compound 4]
IC50 (PI3K δ; Table 1): < 1000 nM
IC50 (PI3K β; Table 1): < 10000 nM
IC50 (mTOR; Table 1, read-out: mTOR IC50): < 1000 nM
IC50 (PI3K α; Table 1): < 10000 nM
IC50 (PI3K γ; Table 1): < 1000 nM
EC50 (PC3): < 10000 nM

Nc1nc2cc(-c3nn(C4CCOCC4)c4ncnc(N)c34)ccc2o1 [Compound 5]
IC50 (PI3K δ; Table 1): < 1000 nM
IC50 (PI3K β; Table 1): < 10000 nM
IC50 (mTOR; Table 1, read-out: mTOR IC50): < 100 nM
IC50 (PI3K α; Table 1): < 1000 nM
IC50 (PI3K γ; Table 1): < 100 nM
EC50 (PC3): < 100 nM

Nc1nc2cc(-c3nn(C4CCC(N5CCOCC5)CC4)c4ncnc(N)c34)ccc2o1 (stereo not shown) [Compound 6]
IC50 (PI3K δ; Table 1): < 1000 nM
IC50 (PI3K β; Table 1): > 10000 nM
IC50 (mTOR; Table 1, read-out: mTOR IC50): < 100 nM
EC50 (PC3): < 1000 nM

CC(=O)N1CCC(n2nc(-c3ccc4oc(N)nc4c3)c3c(N)ncnc32)CC1 [Compound 7]
IC50 (PI3K δ; Table 1): < 1000 nM
IC50 (PI3K β; Table 1): < 10000 nM
IC50 (mTOR; Table 1, read-out: mTOR IC50): < 100 nM
IC50 (PI3K α; Table 1): < 1000 nM
IC50 (PI3K γ; Table 1): < 10000 nM
EC50 (PC3): < 10000 nM

CC(C)n1cc(-c2ccc3oc(N)nc3c2)c2c(N)ncnc21 [Compound 8]
IC50 (PI3K δ; Table 1): < 1000 nM
IC50 (PI3K β; Table 1): > 10000 nM
IC50 (mTOR; Table 1, read-out: mTOR IC50): < 100 nM
IC50 (PI3K α; Table 1): < 1000 nM
IC50 (PI3K γ; Table 1): < 1000 nM
EC50 (PC3): < 100 nM

Nc1nc2cc(-c3cn(C4CCOCC4)c4ncnc(N)c34)ccc2o1 [Compound 9]
IC50 (PI3K β; Table 1): > 10000 nM
IC50 (mTOR; Table 1, read-out: mTOR IC50): < 100 nM
IC50 (PI3K α; Table 1): < 10000 nM
EC50 (PC3): < 100 nM

CC(C)n1nc(-c2ccc3onc(N)c3c2)c2c(N)ncnc21 [Compound 10]
IC50 (mTOR; Table 1, read-out: mTOR IC50): < 10000 nM
EC50 (PC3): > 10000 nM

CC(=O)Nc1noc2cc(-c3nn(C(C)C)c4ncnc(N)c34)ccc12 [Compound 11]
IC50 (mTOR; Table 1, read-out: mTOR IC50): < 1000 nM
EC50 (PC3): > 10000 nM

CC(C)n1nc(-c2cc3cccc(O)c3[nH]2)c2c(N)ncnc21 [Compound 11]
IC50 (PI3K δ; Table 2): 100 to 500 nM
IC50 (PI3K β; Table 2): > 500 nM
IC50 (mTOR; Table 2, read-out: mTORC IC50): < 5 nM
IC50 (PI3K α; Table 2): > 500 nM
IC50 (PI3K γ; Table 2): 100 to 500 nM
IC50 (PC3): 25 to 50 nM

CC(C)n1nc(-c2ccc3c(N)noc3c2)c2c(N)ncnc21 [Compound 12]
IC50 (mTOR; Table 1, read-out: mTOR IC50): < 1000 nM
EC50 (PC3): > 10000 nM

Nc1ncnc2c1c(-c1cc3cc(O)ccc3[nH]1)nn2C1CCCC1 [Compound 12]
IC50 (PI3K δ): > 500 nM
IC50 (PI3K β; Table 2): > 500 nM
IC50 (mTOR; Table 2, read-out: mTORC IC50): 5 to 10 nM
IC50 (PI3K α; Table 2): > 500 nM
IC50 (PC3): 25 to 50 nM

CC(C)n1nc(-c2cc3cc(O)cc(Cl)c3[nH]2)c2c(N)ncnc21 [Compound 15]
IC50 (PI3K δ; Table 2): 25 to 50 nM
IC50 (PI3K β; Table 2): > 500 nM
IC50 (mTOR; Table 2, read-out: mTORC IC50): < 5 nM
IC50 (PI3K α; Table 2): > 500 nM
IC50 (PI3K γ; Table 2): 25 to 50 nM
IC50 (PC3): 25 to 50 nM

CC(C)n1nc(-c2cc3cc(O)cc(F)c3[nH]2)c2c(N)ncnc21 [Compound 16]
IC50 (PI3K δ; Table 2): 50 to 100 nM
IC50 (PI3K β; Table 2): > 500 nM
IC50 (mTOR; Table 2, read-out: mTORC IC50): < 5 nM
IC50 (PI3K α; Table 2): > 500 nM
IC50 (PI3K γ; Table 2): 100 to 500 nM
IC50 (PC3): 100 to 500 nM

CC(C)n1nc(-c2cc3ccc(C#N)cc3[nH]2)c2c(N)ncnc21 [Compound 24]
IC50 (mTOR; Table 2, read-out: mTORC IC50): > 500 nM
IC50 (PI3K α; Table 2): > 500 nM
IC50 (PC3): > 500 nM

CC(C)n1nc(-c2cc3ccc(C(N)=O)cc3[nH]2)c2c(N)ncnc21 [Compound 25]
IC50 (mTOR; Table 2, read-out: mTORC IC50): 100 to 500 nM
IC50 (PI3K α; Table 2): > 500 nM
IC50 (PC3): > 500 nM

Nc1ncnc2c1c(-c1cc3cc(O)ccc3[nH]1)nn2C1CCCCC1 [Compound 26]
IC50 (PI3K δ; Table 2): 50 to 100 nM
IC50 (PI3K β; Table 2): > 500 nM
IC50 (mTOR; Table 2, read-out: mTORC IC50): 5 to 10 nM
IC50 (PI3K α; Table 2): > 500 nM
IC50 (PI3K γ; Table 2): 100 to 500 nM
IC50 (PC3): 100 to 500 nM

Nc1ncnc2c1c(-c1cc3cc(O)ccc3[nH]1)nn2C1CCC1 [Compound 27]
IC50 (mTOR; Table 2, read-out: mTORC IC50): 10 to 25 nM
IC50 (PC3): 100 to 500 nM

Nc1ncnc2c1c(-c1cc3cccc(O)c3[nH]1)nn2C1CCCC1 [Compound 36]
IC50 (PI3K δ; Table 2): 100 to 500 nM
IC50 (mTOR; Table 2, read-out: mTORC IC50): 5 to 10 nM
IC50 (PI3K α; Table 2): > 500 nM
IC50 (PI3K γ; Table 2): 50 to 100 nM
IC50 (PC3): 50 to 100 nM

Nc1ncnc2c1c(-c1cc3cccc(Cl)c3[nH]1)nn2C1CCOCC1 [Compound 51]
IC50 (PI3K δ; Table 2): 100 to 500 nM
IC50 (PI3K β; Table 2): > 500 nM
IC50 (mTOR; Table 2, read-out: mTORC IC50): 25 to 50 nM
IC50 (PI3K α; Table 2): > 500 nM
IC50 (PI3K γ; Table 2): 100 to 500 nM

CN1CCN(C2CC(n3nc(-c4cc5cc(O)ccc5[nH]4)c4c(N)ncnc43)C2)CC1 (stereo not shown) [Compound 52]
IC50 (PI3K δ; Table 2): 100 to 500 nM
IC50 (PI3K β; Table 2): > 500 nM
IC50 (mTOR; Table 2, read-out: mTORC IC50): 100 to 500 nM
IC50 (PI3K α; Table 2): > 500 nM
IC50 (PI3K γ; Table 2): > 500 nM

COc1ccc(Cl)c2cc(-c3nn(C4CCOCC4)c4ncnc(N)c34)[nH]c12 [Compound 61]
IC50 (PI3K δ; Table 2): > 500 nM
IC50 (PI3K β; Table 2): > 500 nM
IC50 (mTOR; Table 2, read-out: mTORC IC50): 10 to 25 nM
IC50 (PI3K α; Table 2): > 500 nM
IC50 (PI3K γ; Table 2): > 500 nM

Nc1ncnc2c1c(-c1cc3cccc(O)c3[nH]1)nn2C1CCOCC1 [Compound 62]
IC50 (PI3K δ; Table 2): 50 to 100 nM
IC50 (PI3K β; Table 2): > 500 nM
IC50 (mTOR; Table 2, read-out: mTORC IC50): < 5 nM
IC50 (PI3K α; Table 2): > 500 nM
IC50 (PI3K γ; Table 2): > 500 nM

COc1cccc2cc(-c3nn(C4CCOCC4)c4ncnc(N)c34)[nH]c12 [Compound 63]
IC50 (PI3K δ; Table 2): 10 to 25 nM
IC50 (PI3K β; Table 2): > 500 nM
IC50 (mTOR; Table 2, read-out: mTORC IC50): < 5 nM
IC50 (PI3K α; Table 2): 100 to 500 nM
IC50 (PI3K γ; Table 2): 10 to 25 nM

CC(C)N1CCC(n2nc(-c3cc4cccc(O)c4[nH]3)c3c(N)ncnc32)CC1 [Compound 64]
IC50 (PI3K δ; Table 2): 100 to 500 nM
IC50 (PI3K β; Table 2): > 500 nM
IC50 (mTOR; Table 2, read-out: mTORC IC50): 10 to 25 nM
IC50 (PI3K α; Table 2): > 500 nM
IC50 (PI3K γ; Table 2): 100 to 500 nM

CC(=O)N1CCC(n2nc(-c3cc4ccc(O)cc4[nH]3)c3c(N)ncnc32)CC1 [Compound 65]
IC50 (PI3K δ; Table 2): 10 to 25 nM
IC50 (PI3K β; Table 2): > 500 nM
IC50 (mTOR; Table 2, read-out: mTORC IC50): 5 to 10 nM
IC50 (PI3K α; Table 2): 25 to 50 nM
IC50 (PI3K γ; Table 2): 10 to 25 nM

COc1cccc2cc(-c3nn(C4CCN(C(=O)C5CC5)CC4)c4ncnc(N)c34)[nH]c12 [Compound 66]
IC50 (PI3K δ; Table 2): > 500 nM
IC50 (PI3K β; Table 2): > 500 nM
IC50 (mTOR; Table 2, read-out: mTORC IC50): > 500 nM
IC50 (PI3K α; Table 2): > 500 nM
IC50 (PI3K γ; Table 2): > 500 nM

COc1cc(Cl)c2[nH]c(-c3nn(C4CCOCC4)c4ncnc(N)c34)cc2c1 [Compound 67]
IC50 (PI3K δ; Table 2): > 500 nM
IC50 (PI3K β; Table 2): > 500 nM
IC50 (mTOR; Table 2, read-out: mTORC IC50): > 500 nM
IC50 (PI3K α; Table 2): > 500 nM
IC50 (PI3K γ; Table 2): > 500 nM

Nc1ncnc2c1c(-c1cc3cc(O)cc(Cl)c3[nH]1)nn2C1CCOCC1 [Compound 68]
IC50 (PI3K δ; Table 2): 10 to 25 nM
IC50 (PI3K β; Table 2): > 500 nM
IC50 (mTOR; Table 2, read-out: mTORC IC50): < 5 nM
IC50 (PI3K α; Table 2): 100 to 500 nM
IC50 (PI3K γ; Table 2): 25 to 50 nM

CC(=O)N1CCC(n2nc(-c3cc4c(Cl)ccc(O)c4[nH]3)c3c(N)ncnc32)CC1 [Compound 69]
IC50 (PI3K δ; Table 2): 100 to 500 nM
IC50 (PI3K β; Table 2): > 500 nM
IC50 (mTOR; Table 2, read-out: mTORC IC50): < 5 nM
IC50 (PI3K α; Table 2): > 500 nM
IC50 (PI3K γ; Table 2): > 500 nM

CC(=O)N1CCC(n2nc(-c3cc4cc(O)cc(Cl)c4[nH]3)c3c(N)ncnc32)CC1 [Compound 70]
IC50 (PI3K δ; Table 2): 10 to 25 nM
IC50 (PI3K β; Table 2): > 500 nM
IC50 (mTOR; Table 2, read-out: mTORC IC50): < 5 nM
IC50 (PI3K α; Table 2): 100 to 500 nM
IC50 (PI3K γ; Table 2): 50 to 100 nM

CC(C)N1CCC(n2nc(-c3cc4c(Cl)ccc(O)c4[nH]3)c3c(N)ncnc32)CC1 [Compound 71]
IC50 (PI3K δ; Table 2): > 500 nM
IC50 (PI3K β; Table 2): > 500 nM
IC50 (mTOR; Table 2, read-out: mTORC IC50): 50 to 100 nM
IC50 (PI3K α; Table 2): > 500 nM
IC50 (PI3K γ; Table 2): > 500 nM
